In data set [1] the test system is human CD4+CD45RO+ T cells. The data set can be described thus: Modulation of T cell differentiation by RAR agonists and antagonists. It is filed as cell-based. To be noted: 8 days culture, vs DMSO. The source says:
Human CD4^+CD45RO^+ T cells were stimulated with an anti-CD3/CD28 antibody and IL-2, and cultured in the presence of DMSO as a control, or various RAR agonists (FIG. 30) or RAR antagonists (FIG. 31) for 8 days.

The test system of data set [2] is human CD4+CD45RO+ T cells. In words: Resistance to apoptosis after anti-Fas antibody (7C11) stimulation. It is filed as cell-based. To be noted: 8 days culture, then anti-Fas antibody. Here is the method: Human CD4^+CD45RO^+ T cells were cultured in the presence of DMSO (control), retinoic acid or an RAR antagonist (LE540) for 8 days, and then stimulated with an anti-Fas antibody (7C11). The proportion of apoptotic cells and the proportion of living cells were determined and analyzed. As a result, the apoptotic cells were increased and the living cells were decreased by enhancing the differentiation of cells by retinoic acid. In contrast, when the differentiation was suppressed by the RAR antagonist, the apoptotic cells were decreased and the living cells were increased (FIG. 20).

The test system of data set [3] is human CD4+CD45RO+ T cells. The data set can be described thus: Division ability and proliferation ability of memory T cells after re-stimulation. To be noted: 8 days culture, re-stimulated with anti-CD3/CD28 antibody and IL-2, or IL-7. In kind it is cell-based. Here is the method:
Human CD4^+CD45RO^+ T cells were stimulated with an anti-CD3/CD28 antibody, cultured in the presence of DMSO (control), retinoic acid or an RAR antagonist (LE540) for 8 days, re-stimulated with an anti-CD3/CD28 antibody and IL-2, or IL-7, and cultured. The division ability and proliferation ability of the T cells were evaluated. For evaluation of the division ability, Cell Trace (trade name) Violet Cell Proliferation Kit (manufactured by Life Technologies) was used. As a result, when the differentiation of T cells was enhanced by retinoic acid, both the division ability and the proliferation ability were decreased, whereas when the differentiation was suppressed by the RAR antagonist, both the division ability and the proliferation ability were increased (FIG. 21).

In data set [4] the test system is human CD4+CD45RO+ T cells. The data set can be described thus: Ability to form memory T cell population after re-stimulation. To be noted: 8 days culture, re-stimulated and cultured for 7 days. In kind it is cell-based. The source says:
Human CD4^+CD45RO^+ T cells were stimulated with an anti-CD3/CD28 antibody, cultured in the presence of DMSO (control), retinoic acid or an RAR antagonist (LE540) for 8 days, and re-stimulated and cultured with an anti-CD3/CD28 antibody and IL-2, or IL-7 for 7 days. The subsets of the T cells were identified.

Data set [5] relates to human CD4+ T cells transferred into NOG mouse. In words: Reformation ability of cultured T cells in body of immunodeficient mouse. It is filed as in vivo. To be noted: T cells in spleen 4 weeks after transfer. Here is the method: Human CD4^+CD45RO^+ T cells were stimulated with an anti-CD3/CD28 antibody, cultured in the presence of DMSO (control), retinoic acid or an RAR antagonist (LE540) for 8 days, and then transferred together with human PBMC from which T cells were removed into the body of an immunodeficient mouse lacking T cells, B cells and NK cells (NOG mouse). After 4 weeks, T cells in the spleen of the mouse were analyzed.

The test system of data set [6] is CD4+ T cells with human WT1332-specific TCR gene. The data set can be described thus: WT1332-specific TCR-introduced CD4+ T cells: memory proportion and proliferation on re-stimulation. It is filed as cell-based. Here is the method:
CD4^+ T cells into which a human WT1332-specific TCR gene was introduced were stimulated with human WT1332, and cultured in the presence of DMSO (control), retinoic acid or an RAR antagonist (LE540). As a result, when the T cells were cultured in the presence of the RAR antagonist, the proportion of memory-type CD4^+ T cells was increased (FIG. 24). Further, when the T cell population cultured in the presence of the RAR antagonist was re-stimulated with PBMC which had been pulsed with human WT1332, and cultured (T cell: 30,000 cells/well; PBMC: 100,000 cells/well; […]

Data set [7] deals with terminal effector fraction of human WT1332-specific CD4+ T cell clone. In words: Induction of memory T cells from terminal effector T cells. It is filed as cell-based. The source says: A terminal effector fraction contained in a human WT1332-specific CD4+ T cell clone derived from a single cell was stimulated with dendritic cells which had been pulsed with human WT1332, and cultured in the presence of DMSO (control), retinoic acid or an RAR antagonist (LE540) for 7 days. Then, the cells were labelled with CFSE, re-stimulated with dendritic cells which had been pulsed with human […], and further cultured in the presence of DMSO (control), retinoic acid or an RAR antagonist (LE540). After culturing for 4 or 6 days, the cells were subjected to an FACS analysis and a ^3H-thymidine incorporation assay (cell proliferation assay).

In data set [8] the test system is Tumor cells expressing both WT1 protein and luciferase. The data set can be described thus: Anti-tumor immunity induction with human WT1 peptide and RAR antagonist in NOG mice. In kind it is in vivo, mouse. To be noted: for survival period: intraperitoneal, compared with control (DMSO). Here is the method: Tumor cells expressing both WT1 protein and luciferase were subcutaneously implanted into a ventral part of NOD/Shi-scid, IL-2Rγnull mice (NOG mice). Three days after the implantation, 10^4 human WT1332-specific CD4^+ T cells (GPP positive) were injected intravenously (day 0). Eight hours after the intravenous injection, DMSO (control), retinoic acid or LE540 was administered intraperitoneally. One day after the intravenous injection, CD3^+ T cells were removed, and 2×10^6 human peripheral blood mononuclear cells which had been pulsed with the human WT1332 peptide were injected intravenously (day 1). Then, a survival period was observed. In addition, the amount of tumor was determined every week by administering luciferin which was a substrate for luciferase and measuring the intensity of emission induced by luciferase from outside the body.

Data set [9] has as its system human CD4+CD45RO+ T cells. The data set can be described thus: Enhancement of T cell differentiation by retinoic acid. It is filed as cell-based. To be noted: vs DMSO; stimulation with IL-2, anti-CD3/CD28 antibody, or both. From the text:
Human CD4^+CD45RO^+ T cells were stimulated by various methods (IL-2, anti-CD3/CD28 antibody, and anti-CD3/CD28 antibody and IL2), and cultured in the presence of DMSO (control) or all-trans retinoic acid (hereinafter retinoic acid used in all Examples described below is all-trans retinoic acid). As a result, in the cell population cultured in the presence of retinoic acid, the proportion of central memory cells (upper right in a graph) was decreased, and the proportion of terminal effector cells (left lower in a graph) was increased (FIG. 19).

In data set [10] the test system is human CD4+CD45RO+ T cells. The data set can be described thus: Culture with anti-CD3, anti-CD28, IL-2 and retinol for a week: cell number and intracellular cytokine assay (IFN-γ). To be noted: various concentrations of retinol, one week; retinol concentration-dependent. It is filed as cell-based. Here is the method:
The RDH10-targeting shRNA (sh #10-2, SEQ ID NO:18), or an shRNA targeting luciferase (sh-luc, SEQ ID NO:20) as a control was introduced into human CD4^+CD45RO^+ T cells using a lentivirus vector. In the same way, a lentivirus vector in which an RDH10 gene was incorporated was introduced into human CD4^+CD45RO^+ T cells to produce RDH10 high-expression T cells.
These cells were cultured in the presence of an anti-CD3 antibody, an anti-CD28 antibody and IL-2 together with various concentrations of retinol (all-trans type) for a week. Then, the number of cells was measured and at the same time, the frequency of cells producing IFN-γ was determined by an intracellular cytokine assay.

Data set [11] concerns human CD4+CD45RO+ T cells. In words: Suppression of RDH10 expression by shRNA: composition of T cell population. To be noted: compared with T cell population expressing control shRNA. It is filed as cell-based. From the text: A construct to express an shRNA targeting retinol dehydrogenase 10 and consisting of a sequence set forth in SEQ ID NO:18 (RDH10-targeting shRNA) was introduced into human CD4^+CD45RO^+ T cells. Specifically, using a lentivirus vector system, packaging cells (293T cell line) were co-transfected with a vector in which a DNA consisting of a nucleotide sequence of SEQ ID NO:19 was incorporated into a cloning site and a packaging vector to produce a recombinant virus, and the human CD4^+CD45RO^+ T cells were infected with the recombinant virus. Integration of the shRNA expression construct into a chromosome was confirmed based on the expression of GFP as a reporter which was located downstream of the shRNA expression construct. In the T cell population in which the RDH10-targeting shRNA was expressed by such a method, the proportion of terminal effector cells ([…]) was decreased and the proportion of central memory cells (CD127^+, CD62L^+) was increased, as compared with a T cell population in which a control shRNA (SEQ ID NO:20) was expressed by the same method (FIG. 2).

Consider `CCCCCCCCc1ccc(-c2ccc(C(=O)O)cc2)cc1` [AC55649], for which, in [1], the “expression of CD62L” value was “decreased” and the “proportion of memory T cells (CD62L+CD127+ cells)” value (“proportion of memory T cells” for short) is “decreased”.
For `CC1(C)CCC(C)(C)c2cc(C(=O)Nc3ccc(C(=O)O)cc3)ccc21` [AM580], in data set [1], the “expression of CD62L” value is listed as “decreased” and the “proportion of memory T cells” value is recorded as “decreased”.
`CC1(C)CC=C(c2cnc3ccccc3c2)c2cc(C(=O)Nc3ccc(C(=O)O)cc3)ccc21` [BMS195614]: in [1], the “expression of CD62L” value is reported as “increased” and the “proportion of memory T cells” value is given as “increased”.
On to `O=C(O)c1ccc2cc(-c3ccc(O)c(C45CC6CC(CC(C6)C4)C5)c3)ccc2c1` [CD437], for which, in data set [1], the “expression of CD62L” value is “decreased” and the “proportion of memory T cells” value was “decreased”.
On to `CN1c2cc3c(cc2N=C(c2ccc(C(=O)O)cc2)c2ccccc21)C(C)(C)CCC3(C)C` [LE135], for which, in [1], the “expression of CD62L” value is given as “increased” and the “proportion of memory T cells” value is on record as “increased”.
As for `CN1c2cc3c(cc2N=C(c2ccc(C(=O)O)cc2)c2ccc4ccccc4c21)C(C)(C)CCC3(C)C` [LE540], in data set [2], the apoptotic cells entry was “decreased” and the living cells entry is “increased”. In [3], the “division ability of T cells” value is reported as “increased” and the “proliferation ability of T cells” value was “increased”. The “appearance frequency of memory T cells” value in data set [4] is “high frequency”. In addition, in data set [5], the “ability to proliferate in the body of the immunodeficient mouse” value is “high ability to proliferate” and the “differentiation state of T cells in the mouse” value is “undifferentiated”. Also, in data set [6] (compared with cells cultured with DMSO or retinoic acid, no IL-2), the “proliferation ability after re-stimulation with WT1332-pulsed PBMC” value is recorded as “high proliferation ability”. For the same compound, the “proportion of memory-type CD4+ T cells” value in data set [6] (stimulated with human WT1332) is listed as “increased”. Also, the “induction of central memory CD4+ T cells from terminal effector CD4+ T cells” value in [7] (LE540) is “induced again”. Also, the “generation of memory T cells having high division ability and high proliferation ability” value in data set [7] (evaluation after re-stimulation) is on record as “generated”. Moreover, in [8] (day 21, compared with DMSO group and retinoic acid group), the “tumor size (-fold increase relative to day 0)” value is “significantly small”. For the same compound, the survival period entry in data set [8] is given as “extended”. Further, in data set [1], the “expression of CD62L” value is reported as “increased” and the “proportion of memory T cells” value is “increased”.
Turning to `CC1(C)CCC(C)(C)c2cc(C3(c4ccc5cc(C(=O)O)ccc5c4)SCCS3)ccc21` [MM11253], in [1], the “expression of CD62L” value is given as “increased” and the “proportion of memory T cells” value is listed as “increased”.
With `CC1=C(/C=C/C(C)=C/C=C/C(C)=C/C(=O)O)C(C)(C)CCC1` [retinoic acid, all-trans retinoic acid], in [9], the “proportion of central memory cells” value was “decreased” and the “proportion of terminal effector cells” value is “increased”. For the same compound, in data set [2], the apoptotic cells result is “increased” and the living cells entry is “decreased”. In [3], the “division ability of T cells” value is reported as “decreased” and the “proliferation ability of T cells” value is listed as “decreased”. Besides, the “appearance frequency of memory T cells” value in [4] is given as “low”. Also, the survival period entry in data set [8] is listed as “shortened”. Moreover, in data set [1], the “expression of CD62L” value is on record as “decreased” and the “proportion of memory T cells” value is recorded as “decreased”.
Consider `CC1=C(/C=C/C(C)=C/C=C/C(C)=C/CO)C(C)(C)CCC1` [retinol, all-trans retinol], for which, in [10], the IFN-γ producing cells result is “increased” and the number of cells result is “increased”.
Consider “RDH10-targeting shRNA: shRNA targeting retinol dehydrogenase 10, sequence SEQ ID NO:18, expressed from a lentivirus vector (GUACACUUCUGGGCCACUGAACUUCCUGUCAUUUAGUGGUCCAGAAGUGUGC)”, for which, in data set [11], the “proportion of central memory cells (CD127+, CD62L+)” value was “increased” and the “proportion of terminal effector cells” value is given as “decreased”.

(Values after patent US10947503B2, “Method for modifying T cell population” (International Institute of Cancer Immunology, Inc., priority 2014, dated 2021).)
